Test results published in ChEMBL document CHEMBL4834435, “Discovery of Potent Coumarin-Based Kinetic Stabilizers of Amyloidogenic Immunoglobulin Light Chains Using Structure-Based Design” (J Med Chem, 2021).

Columns and labels:
[1] = molecular target: Immunoglobulin lambda variable 6-57 (Homo sapiens, UniProt P01721); test: Stabilization of AL patient derived full length fluorescein-labeled IGLV6-57 expressed in Escherichia coli BL21 (DE3) measured after 24 hrs by proteolysis coupled-fluorescence polarization assay
[2] = molecular target: Immunoglobulin lambda variable 6-57 (Homo sapiens, UniProt P01721, F49Y/T46L); test: Stabilization of AL patient derived fluorescein-labeled IGLV6-57 T46L/F49Y mutant measured after 24 hrs by proteolysis coupled-fluorescence polarization assay
[3] = Solubility of the compound; assay type: physicochemical
[4] = Protein binding in human plasma at 2 uM after 4 hrs by UPLC-MS/MS analysis; assay type: ADME, cell-free

Chain of Immunoglobulin lambda variable 6-57 (Homo sapiens, UniProt P01721, F49Y/T46L) (P01721 whole entry, looked up, stated change not applied): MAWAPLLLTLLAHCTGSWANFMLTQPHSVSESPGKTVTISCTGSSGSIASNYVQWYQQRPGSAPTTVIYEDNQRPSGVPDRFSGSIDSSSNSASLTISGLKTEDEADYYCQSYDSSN
Chain of Immunoglobulin lambda variable 6-57 (Homo sapiens, UniProt P01721) (P01721 whole entry): as the sequence (P01721 whole entry, looked up, stated change not applied) above

Row | SMILES | EC50 [1] [nM] | EC50 [2] [nM] | solubility [3] | PPB [4] [%]
1 | Cc1cc(=O)oc2cc(OCC(C)c3ccccc3)ccc12 (stereo not given) | 558 | 444 |  | 
2 | CCN(CC)c1ccc2c(C)c(CCOC(=O)NCCc3cccnc3)c(=O)oc2c1 | 1110 | 3680 |  | 
3 | CCN(CC)c1ccc2c(C)c(CCN3C(=O)NC4(CCN(C(=O)c5ccc[nH]c5=O)CC4)C3=O)c(=O)oc2c1 | 3970 | 2700 |  | 
4 | CCN(C)c1ccc2c(C)cc(=O)oc2c1 | 18000 |  |  | 
5 | CCN(CC)c1ccc2c(C)c(CCN3C(=O)NC4(CCN(c5ncnc6[nH]cnc56)C4)C3=O)c(=O)oc2c1 (stereo not given) | 551 | 355 |  | 
6 | CCN(CC)c1ccc2c(C)c(CCOC(=O)N(C)CCc3cccnc3)c(=O)oc2c1 | 5280 | > 20000 |  | 
7 | CCN(CC)c1ccc2c(C)c(CCN3C(=O)NC4(CCN(c5ncnc6[nH]cnc56)CC4)C3=O)c(=O)oc2c1 | 110 | 46 |  | 
8 | CCN(CC)c1ccc2c(C)c(CCN3C(=O)NC4(CCN(C(=O)c5ccc[nH]c5=O)C4)C3=O)c(=O)oc2c1 (stereo not given) |  | 3960 |  | 
9 | CCN(CC)c1ccc2c(C)c(CCOC(=O)NCc3ccccc3)c(=O)oc2c1 | 302 | 317 |  | 
10 | CCN(CC)c1ccc2c(C)c(CCN3C(=O)NC4(CCN(c5nccn6ncnc56)CC4)C3=O)c(=O)oc2c1 | 71.1 | 55.2 |  | 
11 | CCN(CC)c1ccc2c(C)c(CCN3C(=O)NC4(CCN(S(=O)(=O)c5ccccc5)C4)C3=O)c(=O)oc2c1 (stereo not given) | 207 | 648 |  | 
12 | Cc1cc(=O)oc2cc(OC(C)Cc3ccccc3)ccc12 (stereo not given) | 2970 | 1380 |  | 
13 | Cc1ccccc1C(C)Oc1ccc2c(C)cc(=O)oc2c1 (racemic) |  |  | Nd(Insoluble) | 
14 | CCN(CC)c1ccc2c(C)c(CCN3C(=O)NC4(CCN(c5ncccn5)CC4)C3=O)c(=O)oc2c1 | 292 | 165 |  | 
15 | CCN(CC)c1ccc2c(C)c(CCOC(=O)NCc3cncc(NC(C)=O)c3)c(=O)oc2c1 | 816 | 1170 |  | 
16 | C#CCN(CC#C)c1ccc2c(C)cc(=O)oc2c1 | 2000 |  |  | 
17 | CCN(CC)c1ccc2c(C)c(CCN3CC4(CCN(c5nccn6ccnc56)CC4)NC3=O)c(=O)oc2c1 | 35.6 | 4.9 |  | > 99.5

Row | SMILES | EC50 [1] [nM] | EC50 [2] [nM] | solubility [3] | PPB [4] [%]
18 | CCN(CC)c1ccc2c(C)c(CCOC(=O)NCc3cccc(NC(C)=O)c3)c(=O)oc2c1 | 289 | 194 |  | 
19 | CCN(CC)c1ccc2c(C)c(CCOC(=O)NCC3CCCNC3)c(=O)oc2c1 (stereo not given) | 1690 | 8800 |  | 
20 | CCN(CC)c1ccc2c(C)c(CCN3CC4(CCN(c5ncccn5)CC4)NC3=O)c(=O)oc2c1 | 48.1 | 13.5 |  | 
21 | CCN(CC)c1ccc2c(C)c(CCN3CC4(CCN(c5ncnc6[nH]ncc56)CC4)NC3=O)c(=O)oc2c1 | 8.8 | 4.7 |  | 
22 | Cc1c(CCN2CC3(CCN(c4nccn5ccnc45)CC3)NC2=O)c(=O)oc2cc(OCC(C)c3ccccc3)ccc12 (stereo in doubt; 84b) | 11.5 | 3.9 |  | 
23 | CCN(CC)c1ccc2c(C)c(CCN3C(=O)NC4(CCN(C(=O)c5c[nH]cn5)C4)C3=O)c(=O)oc2c1 (stereo not given) | 855 | 729 |  | 
24 | CCCN(CC)c1ccc2c(C)cc(=O)oc2c1 | 7890 |  |  | 
25 | CCN(CC)c1ccc2c(C)c(CCOC(=O)NCc3cccc(-c4ccc[nH]c4=O)c3)c(=O)oc2c1 | 151 | 26.2 |  | 
26 | CCN(CC)c1ccc2c(C)c(CCN3C(=O)NC4(CCN(c5ncnc6[nH]ncc56)CC4)C3=O)c(=O)oc2c1 | 103 | 124 |  | 
27 | CCN(CC)c1ccc2c(C)c(CCN3C(=O)NC4(CCN(S(=O)(=O)c5cccnc5)C4)C3=O)c(=O)oc2c1 (stereo not given) | 313 | 4370 |  | 
28 | CCN(CC)c1ccc2c(C)c(CCN3C(=O)NC4(CCN(c5ncccn5)C4)C3=O)c(=O)oc2c1 (stereo not given) | 1370 | 688 |  | 
29 | C#CCN(CC)c1ccc2c(C)cc(=O)oc2c1 | 2650 |  |  | 
30 | Cc1c(CCN2CC3(CCN(c4nccn5ccnc45)CC3)NC2=O)c(=O)oc2cc(OCC(C)c3ccccc3)ccc12 (stereo in doubt; 84a) | 8.6 | 8.3 |  | 
31 | CCN(CC)c1ccc2c(C)c(CCN3C(=O)NC4(CCN(c5nccn6ccnc56)CC4)C3=O)c(=O)oc2c1 | 62.4 | 29.8 |  | 
32 | CCN(CC)c1ccc2c(C)c(CCOC(=O)NCc3cccc(C(N)=O)c3)c(=O)oc2c1 | 150 | 228 |  | 
33 | CCN(c1ccc2c(C)cc(=O)oc2c1)C(C)C | 9700 |  |  | 
